In patent publication US12485134B2, “Use of nicotinamide riboside, nicotinic acid riboside, reduced nicotinyl riboside compounds, and nicotinyl riboside compound derivatives in formulations” (ChromaDex Inc., priority 2019, dated 2025):
Blank lines part the entries; values can stand above or below the molecule they belong to.

Assays:
[1] = system: hydrolyzed whey protein isolate; assay: NR-Cl binding to hydrolyzed whey protein isolate (10 kDa cutoff filtration, unbound NR-Cl in filtrate by HPLC); settings: hydrolyzed whey protein isolate solutions, ambient and refrigerated
Procedure: A. Solutions of hydrolyzed whey protein isolate (>90% protein, 2-7% degree of hydrolysis) were prepared at varying concentrations and filtered through 0.2 μm sterile filters. An aliquot of sterile nicotinamide riboside chloride (“NR-Cl,” a salt of NR, I) in water solution was spiked into the sterile whey solutions, targeting a final NR-Cl concentration of 1 mmol per liter (0.3 mg/mL). The solutions containing the mixture of hydrolyzed whey and NR-Cl were filtered through 10 kDa molecular weight cutoff centrifuge filters to remove the whey proteins (14-80 kDa) and any NR-Cl that was bound to the proteins. Any NR-Cl that was not bound to the whey proteins was recovered in the filtrate and quantitated by HPLC.
The solutions of hydrolyzed whey protein isolate and NR-Cl were stored at ambient and refrigerated conditions and analyzed at various timepoints for NR-Cl protein binding and stability.
A study measuring the stability of NR-Cl in hydrolyzed and non-hydrolyzed whey protein was conducted with 2 mmol/L NR-Cl (0.6 mg/mL) and 20 mg/mL protein (33.3:1 wt:wt protein:NR-Cl). […] (See Table 5).

[2] = Degradation tracking of 15N NR-Cl to 15N nicotinamide by 15N-1H HMBC and 1H NMR, with or without whey protein; type: physicochemical
Procedure: A series of 1D ^1H and 1D ^15N-^1H HMBC experiments were collected on a 600 MHz Bruker instrument with 5-mm cryoprobe and using 5-mm NMR tubes. Each sample contains ˜10 mM ^15N isotope labeled NR-Cl (or non-isotope), in a solution containing ˜0.5 mL 90% H2O/10% ^2H2O buffered at pH values of 7.0 (5 mM PBS) and 9.0 (50 mM Glycine/Sodium hydroxide), with or without whey protein. The NMR tube was incubated at 25° C. and data collected at 1, 3 and 7 days. The NMR results provided evidence of binding to milk and soy protein and provided evidence of increased stability in combination with Whey protein at different pH over a 7 day time-course.
FIG. 22 highlights the corresponding ^1H-NMR data for the increased stability of the NR-Cl at day 7 under pH 7 and 9 buffered conditions, compared to control.
The integrations for the peaks corresponding to ^15N NR-Cl and ^15N nicotinamide were measured for the degradation that had occurred to ^15N—NR-Cl from Day 1 to Day 7. […] The half-life for ^15N NR-Cl in buffered pH 9 conditions- improved from 2.7 days (control) to 10 days in the presence of Whey protein.

[3] = Recovery of NR added to store bought (cow) milk, HILIC/HPLC/UV; type: physicochemical; settings: cow's milk and human breast milk
Procedure: Nicotinamide riboside (NR, I) is also naturally found in milk. […] FIGS. 2B and 2C are control chromatograms showing detection of nicotinamide riboside (NR, I) after adding nicotinamide riboside (NR, I) to the milk sample at a known amount. […] The calculated recovery of the 1% nicotinamide riboside (NR, I) was close to 100%. […] Centrifugation was then performed to remove any precipitate, and the supernatant was analyzed using an HILIC/HPLC/UV using standard methods.

[4] = system: milk concentrate proteins; assay: WaterLOGSY NMR binding of NR-Cl; settings: milk concentrate, pH 7.0
Procedure: (§1) WaterLOGSY is a sensitive ligand-observed NMR experiment designed for the screening of protein ligands from a mixture of potential binders. […] The experiment relies on fast dissociation of bound ligands to carry into the free state magnetisation originating from irradiated water that has been transmitted via the protein complex.
(§2) NMR samples for WaterLOGSY were prepared as follows. Ligand-detect WaterLOGSY experiments were carried at 600 MHz with 5-mm cryoprobe and using 5-mm NMR tubes. Each NMR sample for WaterLOGSY contained ˜0.05 mg (˜0.35 mM), using unlabeled ligand NR-Cl (“NR”), in a NMR buffer containing ˜0.5 mL 90% H2O/10% ^2H2O at pH 7.0 with or without the milk and soy protein mix (compared to the WaterLOGSY of NR as a negative control). Protein was added as a powder with a minimal 15 to 50 μM concentration. Typically, the final NMR sample of protein-compound mixtures had >20-fold higher compound concentration of ligand compared to that of the protein. Denatured samples were prepared by simply heating (80° C. for 15-20 mins) the aqueous (5-10% ^2H2O) protein mixture (in absence of NR).
The NR only WaterLOGSY spectrum (FIG. 23) was the negative control to screen for any potential binding of NR-Cl to milk concentrate and soy isolate proteins as shown herein and discussed below.

[5] = system: protein components of a meal replacement beverage; assay: WaterLOGSY NMR binding of NR-Cl; settings: meal replacement beverage containing soy protein isolate and milk protein concentrate
Procedure: as §1, §2
The beverage that was tested contained soy protein isolate and milk protein concentrate and it could only be either of these ingredients that could contribute to the positive result that was observed. […]

[6] = system: milk proteins; assay: WaterLOGSY NMR, direct binding of 15N-labeled NR to milk proteins; settings: no milk, 150 μL and 300 μL of milk
Description: Whey protein fraction and casein protein have been identified as leading candidates to bind directly to and stabilize nicotinamide riboside (NR, I) in milk. The addition of these proteins in particular (either alone or in combination with other proteins and/or vitamins) in order to stabilize nicotinamide riboside (NR, I) in liquid constitutes another embodiment of a method of delivery of the present invention. […] In this experiment, Water-Ligand Observed via Gradient Spectroscopy (WaterLOGSY NMR) was used to detect direct binding of stable, isotope-labeled (^15N) nicotinamide riboside (NR, I) to milk proteins. This is visualized as a concentration-dependent shift in the nicotinamide riboside (NR, I) spectra with increasing additions of milk. The concentric shapes shifts from left to right are the results of addition of no milk, 150 μL of milk, and 300 μL of milk, respectively.

[7] = mice on a high-fat diet supplemented with NR; cited from earlier work

- binding to whey [1]: not observed to bind
SMILES: NC(=O)c1cccnc1 [nicotinamide]

- half-life ([2]; PBS buffer with whey protein, buffered pH 7, 25° C., in the presence of Whey protein): 672 h
- half-life ([2]; PBS buffer without whey protein (control), buffered pH 7, 25° C., control (without Whey protein)): 81.6 h
- half-life ([2]; buffered pH 9, 25° C., control (without Whey protein)): 64.8 h
- half-life ([2]; glycine/sodium hydroxide buffer with whey protein, buffered pH 9, 25° C., in the presence of Whey protein): 240 h
- rate of degradation in the presence of Whey protein ([2]; pH 7.0 and 9.0, days 1, 3 and 7): slower than the control
SMILES: NC(=O)c1ccc[15n+]([C@@H]2O[C@H](CO)[C@@H](O)[C@H]2O)c1 [^15N NR-Cl, ^15N-labeled nicotinamide riboside chloride]

SMILES: NC(=O)c1ccc[n+]([C@@H]2O[C@H](CO)[C@@H](O)[C@H]2O)c1 [NR, Nicotinamide riboside]
- stability in milk [3]: stable in milk
- WaterLOGSY binding [4]: comparatively weaker binding
- WaterLOGSY binding [5]: strongest evidence of NR binding
- direct binding to milk proteins (WaterLOGSY, concentration-dependent shift) [6]: binds to proteins in milk
- less weight gained [7]: 40%
